According to ChEMBL document CHEMBL1144148, “DNA polymerase beta inhibitors from Baeckea gunniana” (J Nat Prod, 1999):

Legend:
DNA polymerase beta [1] = biological target: T1, DNA polymerase beta (Rattus norvegicus, UniProt P06766); experiment: Inhibition of rat DNA polymerase beta in presence of BSA
DNA polymerase beta [2] = biological target: T1, DNA polymerase beta; experiment: Inhibition of rat DNA polymerase beta in absence of BSA
[3] = biological target: DNA polymerase beta (Rattus norvegicus) (UniProt P06766); experiment: Inhibition of rat DNA polymerase beta at 50 ug/mL
[4] = biological target: DNA polymerase beta (Rattus norvegicus) (UniProt P06766); experiment: Inhibition of rat DNA polymerase beta at 10 ug/mL

IC50 (DNA polymerase beta [1])	IC50 (DNA polymerase beta [2])	inhibition [3]	inhibition [4]	Structure (SMILES)
5.3 µM	3.2 µM	80%	65%	C=C1[C@H]2C3=CC[C@@H]4[C@@]5(C)CC[C@H](O)C(C)(C)[C@@H]5CC[C@@]4(C)[C@]3(C)CC[C@@]2(C(=O)O)CC[C@H]1C
5.6 µM	2.5 µM	82%	68%	C=C1CC[C@]2(C(=O)O)CC[C@]3(C)[C@H](CC[C@@H]4[C@@]5(C)CC[C@H](O)C(C)(C)[C@@H]5CC[C@]43C)C2=C1C
8.5 µM	4.8 µM	90%	55%	C[C@H]1[C@H](C)CC[C@]2(C(=O)O)CC[C@]3(C)C(=CC[C@@H]4[C@@]5(C)CC[C@H](O)C(C)(C)[C@@H]5CC[C@]43C)[C@H]12 [URSOLIC ACID]
7.5 µM	3.7 µM	90%	42%	CC1(C)CC[C@]2(C(=O)O)CC[C@]3(C)C(=CC[C@@H]4[C@@]5(C)CC[C@H](O)C(C)(C)[C@@H]5CC[C@]43C)[C@@H]2C1 [OLEANOLIC_ACID]
